A word on the IC50: it is the concentration that gives 50% inhibition. Broadly, the half-life is the time needed for the level to fall by half in the phase considered. Lower therefore signals fast loss. For orientation: inhibition means how much of the control response was suppressed.

The source of these data is ChEMBL document CHEMBL1158540, “Heterocyclic cycloalkanol ethylamines as norepinephrine reuptake inhibitors” (Bioorg Med Chem Lett, 2010).

Molecules are shown by their SMILES.

Series [1] has as its target T1, Sodium-dependent noradrenaline transporter (Homo sapiens, UniProt P23975). Put plainly: Inhibition of human NET transfected in MDCK-Net6 cells at 1 uM. The format is cell-based.
For series [2], the system named is Rattus norvegicus. Put plainly: Effect on temperature homeostasis in telemetric ovariectomy-induced thermoregulatory dysfunction rat model assessed as mean reduction of tail skin temperature from baseline at 30 mg/kg, ip after 6 hrs. The series is classed as functional. The settings on record: route intraperitoneal.
For series [3], the system named is Rattus norvegicus. Put plainly: Effect on temperature homeostasis in telemetric ovariectomy-induced thermoregulatory dysfunction rat model assessed as maximum reduction of tail skin temperature from baseline at 30 mg/kg, ip fter 6 hrs. The format is functional. Conditions: route intraperitoneal.
Series [4] has as its target T1, Sodium-dependent noradrenaline transporter.
Series [5] addresses T2, Sodium-dependent dopamine transporter (Homo sapiens, UniProt Q01959). Put plainly: biochemical.
Description: Displacement of [3H]WIN-35428 form human DAT expressed in CHO cell membranes
The nature of series [6]: Half life in rat microsomes. The series is classed as ADME, Microsome.
For series [7], the target named is T3, Sodium-dependent serotonin transporter (Homo sapiens, UniProt P31645). The format is cell-based, JAR.
Target sequence in this assay (P31645 whole entry): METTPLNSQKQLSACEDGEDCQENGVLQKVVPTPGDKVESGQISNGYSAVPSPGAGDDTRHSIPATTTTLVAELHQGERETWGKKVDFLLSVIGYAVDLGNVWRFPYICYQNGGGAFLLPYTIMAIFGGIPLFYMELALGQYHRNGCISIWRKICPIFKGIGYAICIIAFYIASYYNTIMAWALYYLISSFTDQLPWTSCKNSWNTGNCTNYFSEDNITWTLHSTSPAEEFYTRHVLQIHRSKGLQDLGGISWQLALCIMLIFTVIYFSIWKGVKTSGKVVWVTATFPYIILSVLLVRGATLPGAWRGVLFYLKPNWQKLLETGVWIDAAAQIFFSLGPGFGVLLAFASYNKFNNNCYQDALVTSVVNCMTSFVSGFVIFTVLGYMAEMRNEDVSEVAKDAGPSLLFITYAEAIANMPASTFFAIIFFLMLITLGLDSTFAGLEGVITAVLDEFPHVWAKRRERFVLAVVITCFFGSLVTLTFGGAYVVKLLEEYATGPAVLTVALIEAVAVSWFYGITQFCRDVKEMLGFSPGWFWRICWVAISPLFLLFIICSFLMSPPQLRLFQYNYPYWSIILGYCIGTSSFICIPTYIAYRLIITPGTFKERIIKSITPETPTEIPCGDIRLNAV
Series [8] concerns Rattus norvegicus. Put plainly: Effect on temperature homeostasis in telemetric ovariectomy-induced thermoregulatory dysfunction rat model assessed as mean reduction of tail skin temperature from baseline at 30 mg/kg, sc after 6.5 hrs. The format is functional. The settings on record: route subcutaneous.
Series [9] relates to Rattus norvegicus. Put plainly: Effect on temperature homeostasis in telemetric ovariectomy-induced thermoregulatory dysfunction rat model assessed as mean reduction of tail skin temperature from baseline at 30 mg/kg, po after 3 hrs. The series is classed as functional.
For series [10], the system named is Rattus norvegicus. Put plainly: Effect on temperature homeostasis in telemetric ovariectomy-induced thermoregulatory dysfunction rat model assessed as maximum reduction of tail skin temperature from baseline at 30 mg/kg, sc fter 6.5 hrs. The series is classed as functional. Conditions: route subcutaneous.
In series [11] the test system is Rattus norvegicus. Put plainly: Effect on temperature homeostasis in telemetric ovariectomy-induced thermoregulatory dysfunction rat model assessed as maximum reduction of tail skin temperature from baseline at 30 mg/kg, po after 3 hrs. The series is classed as functional.
In series [12] the target is T2, Sodium-dependent dopamine transporter. Put plainly: Inhibition of [3H]WIN-35428 binding to human DAT expressed in CHO membranes at 1000 nM. The series is classed as cell membranes.
For series [13], the target named is T3, Sodium-dependent serotonin transporter. Put plainly: Inhibition of human SERT expressed in human JAR cells at 1 uM. The series is classed as cell-based.
Target sequence in this assay (P31645 whole entry, looked up): as the sequence (P31645 whole entry) above
Series [14] concerns Rattus norvegicus. Put plainly: Effect on temperature homeostasis in telemetric ovariectomy-induced thermoregulatory dysfunction rat model assessed as mean reduction of tail skin temperature from baseline at 30 mg/kg, ip after 5.5 hrs. The format is functional. Conditions: route intraperitoneal.
In series [15] the test system is Rattus norvegicus. Put plainly: Effect on temperature homeostasis in telemetric ovariectomy-induced thermoregulatory dysfunction rat model assessed as maximum reduction of tail skin temperature from baseline at 30 mg/kg, ip fter 5.5 hrs. The series is classed as functional. The settings on record: route intraperitoneal.

T2 sequence (Q01959 whole entry): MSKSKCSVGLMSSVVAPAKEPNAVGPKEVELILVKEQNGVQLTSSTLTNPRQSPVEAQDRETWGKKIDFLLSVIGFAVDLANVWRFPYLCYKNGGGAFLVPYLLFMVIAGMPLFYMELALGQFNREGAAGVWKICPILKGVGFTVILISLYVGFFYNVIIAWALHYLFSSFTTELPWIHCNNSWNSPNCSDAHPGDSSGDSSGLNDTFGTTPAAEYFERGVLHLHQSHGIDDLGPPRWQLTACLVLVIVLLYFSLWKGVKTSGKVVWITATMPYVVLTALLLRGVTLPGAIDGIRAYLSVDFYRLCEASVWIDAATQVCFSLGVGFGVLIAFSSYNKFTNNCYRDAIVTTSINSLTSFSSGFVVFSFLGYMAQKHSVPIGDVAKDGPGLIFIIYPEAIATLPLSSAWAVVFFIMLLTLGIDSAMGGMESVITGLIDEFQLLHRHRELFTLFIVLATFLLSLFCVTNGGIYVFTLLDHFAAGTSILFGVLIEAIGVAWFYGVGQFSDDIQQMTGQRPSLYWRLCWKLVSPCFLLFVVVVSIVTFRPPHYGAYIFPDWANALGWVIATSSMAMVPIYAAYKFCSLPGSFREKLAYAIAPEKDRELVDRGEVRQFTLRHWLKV
T1 sequence (P23975 whole entry): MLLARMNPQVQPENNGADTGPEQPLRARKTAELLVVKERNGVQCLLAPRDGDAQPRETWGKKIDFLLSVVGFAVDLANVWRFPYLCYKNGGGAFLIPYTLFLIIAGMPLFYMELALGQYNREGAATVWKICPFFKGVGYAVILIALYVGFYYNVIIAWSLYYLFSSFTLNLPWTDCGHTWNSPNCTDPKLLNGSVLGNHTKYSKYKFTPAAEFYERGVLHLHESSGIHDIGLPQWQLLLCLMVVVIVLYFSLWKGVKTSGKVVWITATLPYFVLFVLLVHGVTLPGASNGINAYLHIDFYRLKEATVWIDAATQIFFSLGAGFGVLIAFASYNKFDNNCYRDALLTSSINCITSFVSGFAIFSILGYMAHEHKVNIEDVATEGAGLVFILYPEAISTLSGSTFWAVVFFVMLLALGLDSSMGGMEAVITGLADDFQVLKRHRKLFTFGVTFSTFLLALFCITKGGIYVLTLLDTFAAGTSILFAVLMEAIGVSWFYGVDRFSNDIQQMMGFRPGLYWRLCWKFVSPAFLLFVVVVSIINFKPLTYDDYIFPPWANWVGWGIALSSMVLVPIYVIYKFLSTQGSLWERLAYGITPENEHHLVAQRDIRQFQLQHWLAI

In [1], `CN1CCN(CC(c2csc(Cl)c2)C2(O)CCCCC2)CC1` (stereo not given) showed an INH of 88 µM. For the same compound, the Activity with Rattus norvegicus [2] is -2.75 °C; in the series on Rattus norvegicus [3], -4.2 °C. Besides, the IC50 in series [4] is 0.095 µM; in series [5] it was 0.389 µM.

In series [1], `OC1(C(CN2CCNCC2)c2cccs2)CCCCC1` (stereo not given) displayed an INH of 54 µM.

`CN1CCN(CC(c2cccc(Cl)c2)C2(O)CCCCC2)CC1` (stereo not given) yielded a half-life in series [6] of less than 1 min. The IC50 in series [7] is more than 2 µM; in series [4], 0.056 µM; in series [5], 0.247 µM. In addition, the Activity in the series with Rattus norvegicus [8] is -2.6 °C; in the series with Rattus norvegicus [9], -3.1 °C; with Rattus norvegicus [10] it was -3.5 °C; in the series with Rattus norvegicus [11] it was -3.8 °C.

`CN1CCN(C[C@@H](c2csc(Cl)c2)C2(O)CCCCC2)CC1` registered an INH in [1] of 0 µM. For the same compound, the IC50 is 18 µM in series [4] and more than 6 µM in [5].

On to `OC1(C(CN2CCNCC2)c2csc(Cl)c2)CCCCC1` (stereo not given), for which, in series [1], the INH stood at 86 µM. In addition, the inhibition in series [12] was determined as 43%. For the same compound, the IC50 in series [4] was 0.1 µM.

The compound `Cn1cc(C(CN2CCNCC2)C2(O)CCCCC2)c2ccccc21` (stereo not given) showed an INH in series [1] of 32 µM.

For the compound `OC1(C(CN2CCNCC2)c2c[nH]c3ccccc23)CCCCC1` (stereo not given), the INH in series [1] came to 21 µM; in series [13], 90 µM.

For `OC1(C(CN2CCNCC2)c2csc3ccccc23)CCCCC1` (stereo not given), the results for the INH in [1] and in series [13] were 82 µM and 48 µM, respectively. In [12], this compound displayed an inhibition of 51%. The compound further yielded an IC50 in series [4] of 0.255 µM.

For the compound `CN1CCN(C[C@H](c2cccc(Cl)c2)C2(O)CCCCC2)CC1`, the INH in series [1] worked out at 92 µM. For the same compound, the IC50 in series [4] is 0.03 µM; in [5], 0.175 µM.

On to `CN1CCN(C[C@H](c2csc(Cl)c2)C2(O)CCCCC2)CC1`, for which the INH in [1] was 91 µM. Also, the Activity was -3.3 °C in the series with Rattus norvegicus [14] and -4.6 °C in the series on Rattus norvegicus [15]. For the same compound, the IC50 in series [4] came to 0.057 µM; in series [5] it was 0.212 µM.

`OC1(C(CN2CCNCC2)c2ccc(Cl)s2)CCCCC1` (stereo not given): the INH in series [1] worked out at 50.8 µM.

In the case of `OC1(C(CN2CCNCC2)c2cc3ccccc3s2)CCCCC1` (stereo not given), the results for the INH in series [1] and in series [13] were 73 µM and 89 µM, respectively. Further, the inhibition in [12] was found to be 61%. This compound displayed an IC50 in [4] of 0.55 µM.

In the case of `OC1(C(CN2CCNCC2)c2ccsc2Cl)CCCCC1` (stereo not given), the INH in [1] was determined as 55 µM; in series [13], 34 µM. This compound showed an IC50 in [4] of 0.72 µM.

As to `OC1(C(CN2CCNCC2)c2cnc3ccccc3c2)CCCCC1` (stereo not given), the INH in [1] stood at 19 µM.

Consider `OC1(C(CN2CCNCC2)c2cc(Cl)sc2Cl)CCCCC1` (stereo not given), for which the results for the INH in series [1] and in series [13] were 94 µM and 12.2 µM, respectively. For the same compound, in series [4], the IC50 stood at 0.225 µM.

With `CN1CCN(C[C@@H](c2cccc(Cl)c2)C2(N)CCCCC2)CC1`, the INH in series [13] is 32 µM. In addition, the IC50 in series [4] came to 0.576 µM; in series [5], 0.03 µM.
